The text below walks through data of patent US12648904B2, “Porous nanocomposite medical implant device” (Lynthera Corporation, priority 2020, dated 2026).

The data set can be described thus: Fatty acid loading into contact lenses, by weighing the dry lens before and after soaking. As to conditions: for Fatty acid loading / Fatty acid by weight of the dried lens: ACUVUE TruEye lens; for Fatty acid loading: soaking concentration 20 mg/mL fatty acid in ethanol; for Fatty acid by weight of the dried lens: 7.5 mg/mL fatty acid in ethanol, 24 hours at 23° C. In kind it is physicochemical. On the procedure:
Two commercial silicone hydrogel contact lenses were tested: ACUVUE TruEye® (46% Water+54% Narafilcon A) and ACUVUE Oasys® (38% Water+62% Senofilcon A). TruEye® is a daily disposable contact lens while Oasys® is an approved contact lens for extended wear. The lenses were rinsed with deionized water and then air-dried before being soaked in 4 mL of 19 mg/mL, 27 mg/mL or 40 mg/mL of oleic acid in ethanol. The soaking duration was 24 hours at room temperature. Following the loading step, the contact lenses were taken out and excess fatty acid-ethanol solution was blotted out from the lens surface. Lenses were washed in deionized water for 1 hour and subsequently air-dried overnight.
The loading amount of OA was determined by weighing the dry lens before and after the fatty acid loading period as shown in FIG. 4. Oleic acid loading has a linear dependency on the concentration of the loading solutions. Furthermore, Oasys® has higher affinity for oleic acid than TruEye® at concentrations between […] and 27 mg/mL. For higher concentrations, the affinity for oleic acid is equivalent for both contact lenses. Therefore, the loading of Oleic acid into lens can be adjusted by this correlation.
1-day ACUVUE Moist® (58% Water+42% Etafi Icon A) are conventional hydrogel commercial lenses that are mostly composed of poly-2-hydroxyethyl methacrylate (pHEMA). Lenses were rinsed with PBS and then air-dried before use. Dry lenses were soaked in 4 mL of 100 mg/mL of oleic acid in a mixture of ethanol and deionized water (75/25 ethanol/water). […] Following the loading step, the contact lenses were taken out and excess fatty acid-ethanol solution was blotted out from the lens surface. Lenses were washed in PBS for 1 hour and then were air-dried overnight. The loading amount of OA was determined by weighing the dry lens before and after the fatty acid loading period.
ACUVUE TruEye® (diopter −3.5) contact lenses were rinsed with deionized. water and then air-dried overnight before use. One batch of contact lenses were soaked in 4 mL of 7.5 mg,/mL of myristic acid in ethanol. Another batch of contact lens were soaked in 4 mL of 7.5 mg/mL of stearic acid in ethanol. A third batch of lenses was used as a control (no fatty acid loading). The soaking duration was 24 hours at 23° C. Following the loading step, the contact lenses were taken out and excess fatty acid-ethanol solution was blotted out from the lens surface. Lenses were washed in deionized water for 1 hour and subsequently air-dried overnight. All contact lenses were optically transparent in the hydrated state. The wt % of fatty add retain by the contact lens was determined by recording the increase in the weight of the dried lens after the soaking and drying procedure. For both stearic and myristic acid, approximately 1.5% ±0.5% by weight of the dried lens was composed of the fatty acid.

Each structure is given as a SMILES string.

In turn, `CCCCCCCC/C=C\CCCCCCCC(=O)O` [oleic acid] displayed a Fatty acid loading of 6.1 wt %. The “Maximum oleic acid loading” value (1-day ACUVUE Moist lens, 100 to 500 mg/mL oleic acid in 75/25 ethanol/water) is 2.9 wt. %. The molecule `CC/C=C\C/C=C\C/C=C\CCCCCCCC(=O)O` [α-linolenic acid] registered a Fatty acid loading of 6.0 wt %. The same measure, in the same setting: as for `CCCCC/C=C\C/C=C\CCCCCCCC(=O)O` [linoleic acid], the figure is 6.2 wt %.

On to `CCCCCCCCCCCCCCCCCC(=O)O` [stearic acid, Stearic Acid (Octadecanoic Acid)], for which the “Fatty acid by weight of the dried lens” value is “approximately 1.5%”. On the same count and under the same terms, the entry for `CCCCCCCCCCCCCC(=O)O` [myristic acid, Myristic Acid (Tetradecanoic Acid)] is “approximately 1.5%”.
